Assays:
MAGL [1] = target: T1, MAGL (Homo sapiens, UniProt Q99685); assay: Surface plasmon resonance on human MAGL; type: binding; settings: SPR
T1 sequence (Q99685 1-303): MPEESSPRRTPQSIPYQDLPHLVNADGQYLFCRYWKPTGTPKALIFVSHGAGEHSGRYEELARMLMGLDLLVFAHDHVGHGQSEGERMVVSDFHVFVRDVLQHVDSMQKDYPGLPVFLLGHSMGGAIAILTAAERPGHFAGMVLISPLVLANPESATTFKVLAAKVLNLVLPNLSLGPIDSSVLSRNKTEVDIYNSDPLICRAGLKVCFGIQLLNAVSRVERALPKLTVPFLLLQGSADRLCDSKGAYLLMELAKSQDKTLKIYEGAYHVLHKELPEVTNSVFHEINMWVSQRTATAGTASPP
Description: High throughput kinetic solubility measurement was performed as previously described in the […]
Surface plasmon resonance
EDC/NHS coupling with a final protein concentration of 0.06 mg/mL: 10 mM acetate pH 5.5 + 10µM RO7224999-000-001(reference binder). No quenching was applied after immobilization, but the surface was left with a running buffer for 1 h to hydrolyze and stabilize.
Running buffer: […], 150 mM NaCl, 0.05% P20, pH 7.4 + 50 µM EDTA, 1% DMSO Instrument:
Biacore T200 Sensorchip: CM5 Temperature: 18 °C concentration series: 5 concentration 3-fold dilution, top conc 0.5 µM, contact time 180s, dissociation time 300s before each compound a blank injection for double referencing was measured. Each compound was followed by 9 injections of Control, RO7283571 (60 s contact time, 200 s dissociation time, 10 µM) to validate surface activity and recovery to determine off rates.
Dissociation was trimmed for compounds showing faster kinetics to suppress the over-fitting of baseline drift. Data was fitted with 1:1 model with an added drift parameter to improve fit quality and to compensate from insufficient drift correction with the double referencing. Off rates (koff) were determined by recovery of reference binding. The signal was first blank subtracted, and the corrected chaser response was plotted versus time and fitted to an exponential decay model. […]

MAGL [2] = target: T1, MAGL; assay: Fluorescence polarization titration of probe 5 with purified hMAGL; type: binding; settings: FP titration, probe 20 nM
Description: Fluorescence Polarization Assay
Determination of the Kd of the fluorescent probes
Commercially available purified hMAGL protein (Cepter Biopartners, Nutley, NJ, USA) was diluted in PBS-buffer pH 7.4 + 0.1% Tween 80, in a range of concentrations and incubated with compound 5 (20 nM = [L]T) at ambient temperature for 60 min. Fluorescence polarization was determined via a Tecan Spark multimode plate reader (Ex/Em = 482/502 nm , 7.5 nm bandwidth each) in a 384 flat black well plate (Corning); six measurements per data point. The experiment was carried out in triplicate. Data were analyzed via GraphPad Prism 5.0 software. K d of the fluoroprobe was calculated from the observed MAGL concentration at half-maximal FP (FP50) as follows.
K = [L][P] = 0.5 [L]T (FP50 − 0.5 [L]T) = FP − 0.5 [L]
Competitive FP Binding Assay hMAGL in PBS-buffer pH 7.4 + 0.1% tween 80 at a final concentration of 50 nM was incubated with a range of inhibitor DMSO solutions (5µL) (serial dilution 1:3) for 30 min at ambient temperature in a 384 flat black well plate (Corning). […] After 30 min incubation at ambient temperature, fluorescence polarization was determined as described above. Data were analyzed via GraphPad Prism 5.0 software, and IC50 values were converted to Ki according to Nikolovska-Coleska et al. 28 Under these conditions the assay performed with an average z´= 0.90. […]

Structure (SMILES) | residence time (MAGL [1]) | Kd (MAGL [2])
O=C(N1CC2(CC(CC3=C4C=CC=[N+]4[B-](F)(F)n4cccc43)C2)C1)N1CC2(CC(n3cnc(C4CC4)n3)C2)C1 [Compound 5] | 44 min | 6.65 nM
O=C1CO[C@H]2CCN(C(=O)N3CC4(CC(CC5=C6C=CC=[N+]6[B-](F)(F)n6cccc65)C4)C3)C[C@H]2N1 [Compound 4] | 37 min | 

— article PMC11951083, “Highly Specific Miniaturized Fluorescent Monoacylglycerol Lipase Probes Enable Translational Research” (Journal of the American Chemical Society, 2025)
